Measurements as given in ChEMBL document CHEMBL5046233, “Nitroxoline and its derivatives are potent inhibitors of metallo-β-lactamases” (Eur J Med Chem, 2022).
Active and inactive are the calls of the source. The rule behind the calls is not given here.

Assays:
[1] = Inhibition of recombinant NDM-1 (unknown origin) using fluorocillin as substrate at 30 uM incubated for 30 mins by fluorescence based assay; settings: Bacteria
[2] = Inhibition of recombinant NDM-1 (unknown origin) using fluorocillin as substrate at 3 uM incubated for 30 mins by fluorescence based assay; settings: Bacteria
Escherichia coli [3] = test: Antimicrobial activity against Escherichia coli T2359 expressing NDM-1 assessed as inhibition of bacterial growth by CLSI protocol based broth microdilution assay; format: functional
Klebsiella pneumoniae [4] = test: Antimicrobial activity against Klebsiella pneumoniae clinical isolate T2301 expressing NDM-1 assessed as inhibition of bacterial growth by CLSI protocol based broth microdilution assay; format: functional
Escherichia coli [5] = test: Antimicrobial activity against Escherichia coli clinical isolate T2228 expressing VIM-1 assessed as inhibition of bacterial growth by CLSI protocol based broth microdilution assay; format: functional
Escherichia coli [6] = test: Potentiation of imipenem-induced antibacterial activity against Escherichia coli T2544 expressing VIM-1 assessed as fold change in imipenem MIC at 32 mg/L by CLSI protocol based broth microdilution assay; format: functional
Klebsiella pneumoniae [7] = test: Potentiation of imipenem-induced antibacterial activity against Klebsiella pneumoniae clinical isolate T2301 expressing NDM-1 assessed as fold change in imipenem MIC at 32 mg/L by CLSI protocol based broth microdilution assay; format: functional
Klebsiella pneumoniae [8] = test: Potentiation of cefuroxime-induced antibacterial activity against Klebsiella pneumoniae clinical isolate T2301 expressing NDM-1 assessed as cefuroxime MIC at 32 mg/L by CLSI protocol based broth microdilution assay; format: functional
Klebsiella pneumoniae [9] = test: Potentiation of ceftazidime-induced antibacterial activity against Klebsiella pneumoniae clinical isolate T2301 expressing NDM-1 assessed as ceftazidime MIC at 32 mg/L by CLSI protocol based broth microdilution assay; format: functional
Klebsiella pneumoniae [10] = test: Potentiation of meropenem-induced antibacterial activity against Klebsiella pneumoniae clinical isolate T2301 expressing NDM-1 assessed as meropenem MIC at 32 mg/L by CLSI protocol based broth microdilution assay; format: functional
Klebsiella pneumoniae [11] = test: Potentiation of ciprofloxacin-induced antibacterial activity against Klebsiella pneumoniae clinical isolate T2301 expressing NDM-1 assessed as ciprofloxacin MIC at 32 mg/L by CLSI protocol based broth microdilution assay; format: functional
Escherichia coli [12] = test: Potentiation of cefuroxime-induced antibacterial activity against Escherichia coli clinical isolate T2228 expressing VIM-1 assessed as cefuroxime MIC at 32 mg/L by CLSI protocol based broth microdilution assay; format: functional
Escherichia coli [13] = test: Potentiation of gentamicin-induced antibacterial activity against Escherichia coli clinical isolate T2228 expressing VIM-1 assessed as gentamicin MIC at 32 mg/L by CLSI protocol based broth microdilution assay; format: functional
Enterobacter cloacae [14] = test: Potentiation of imipenem-induced antibacterial activity against Enterobacter cloacae T2311 expressing NDM-1 assessed as fold change in imipenem MIC at 32 mg/L by CLSI protocol based broth microdilution assay; format: functional
Escherichia coli [15] = test: Potentiation of imipenem-induced antibacterial activity against Escherichia coli T2351 expressing NDM-5 assessed as fold change in imipenem MIC at 32 mg/L by CLSI protocol based broth microdilution assay; format: functional
Pseudomonas aeruginosa [16] = test: Potentiation of imipenem-induced antibacterial activity against Pseudomonas aeruginosa T2357 expressing VIM-1 assessed as fold change in imipenem MIC at 32 mg/L by CLSI protocol based broth microdilution assay; format: functional
Enterobacter cloacae [17] = test: Potentiation of imipenem-induced antibacterial activity against Enterobacter cloacae T2218 expressing GIM-1 assessed as fold change in imipenem MIC at 32 mg/L by CLSI protocol based broth microdilution assay; format: functional
Escherichia coli [18] = test: Potentiation of imipenem-induced antibacterial activity against Escherichia coli T2435 expressing KPC-2 assessed as fold change in imipenem MIC at 32 mg/L by CLSI protocol based broth microdilution assay; format: functional
Citrobacter freundii [19] = test: Potentiation of imipenem-induced antibacterial activity against Citrobacter freundii T2431 expressing KPC-3 assessed as fold change in imipenem MIC at 32 mg/L by CLSI protocol based broth microdilution assay; format: functional
Klebsiella pneumoniae [20] = test: Antimicrobial activity against Klebsiella pneumoniae T2301 expressing NDM-1 assessed as assessed as inhibition of bacterial growth at 0.5XMIC measured after 24 hrs by time-kill assay; format: functional, organism-based
Escherichia coli [21] = test: Antimicrobial activity against Escherichia coli T2359 expressing VIM-1 assessed as assessed as inhibition of bacterial growth at 0.5XMIC measured after 24 hrs by time-kill assay; format: functional, organism-based
Escherichia coli [22] = test: Potentiation of imipenem-induced antibacterial activity against Escherichia coli T2359 expressing NDM-1 assessed as imipenem MIC at 32 mg/L by CLSI protocol based broth microdilution assay; format: functional
Escherichia coli [23] = test: Potentiation of imipenem-induced antibacterial activity against Escherichia coli clinical isolate T2228 expressing VIM-1 assessed as imipenem MIC at 32 mg/L by CLSI protocol based broth microdilution assay; format: functional
Escherichia coli [24] = test: Antimicrobial activity against Escherichia coli T2359 expressing VIM-1 assessed as inhibition of bacterial growth at 0.5XMIC for 6 hrs by CLSI protocol based broth microdilution assay; format: functional, organism-based
Serratia marcescens = test: Potentiation of imipenem-induced antibacterial activity against Serratia marcescens T2352 expressing NDM-1 assessed as imipenem MIC at 32 mg/L by CLSI protocol based broth microdilution assay; format: functional
Citrobacter freundii [25] = test: Potentiation of imipenem-induced antibacterial activity against Citrobacter freundii T2354 expressing VIM-4 assessed as imipenem MIC at 32 mg/L by CLSI protocol based broth microdilution assay; format: functional
Enterobacter cloacae [26] = test: Potentiation of imipenem-induced antibacterial activity against Enterobacter cloacae T2353 expressing VIM-1 assessed as imipenem MIC at 32 mg/L by CLSI protocol based broth microdilution assay; format: functional
Klebsiella pneumoniae [27] = test: Potentiation of imipenem-induced antibacterial activity against Klebsiella pneumoniae T2216 expressing VIM-1 assessed as imipenem MIC at 32 mg/L by CLSI protocol based broth microdilution assay; format: functional
Pseudomonas aeruginosa [28] = test: Potentiation of imipenem-induced antibacterial activity against Pseudomonas aeruginosa T2282 expressing VIM-2 assessed as imipenem MIC at 32 mg/L by CLSI protocol based broth microdilution assay; format: functional
Enterobacter cloacae [29] = test: Potentiation of imipenem-induced antibacterial activity against Enterobacter cloacae T2218 expressing GIM-1 assessed as imipenem MIC at 32 mg/L by CLSI protocol based broth microdilution assay; format: functional
Escherichia coli [30] = test: Potentiation of imipenem-induced antibacterial activity against Escherichia coli T2435 expressing KPC-2 assessed as imipenem MIC at 32 mg/L by CLSI protocol based broth microdilution assay; format: functional
Citrobacter freundii [31] = test: Potentiation of imipenem-induced antibacterial activity against Citrobacter freundii T2431 expressing KPC-3 assessed as imipenem MIC at 32 mg/L by CLSI protocol based broth microdilution assay; format: functional
Klebsiella pneumoniae [32] = test: Potentiation of imipenem-induced antibacterial activity against Klebsiella pneumoniae T2432 expressing KPC-9 assessed as imipenem MIC at 32 mg/L by CLSI protocol based broth microdilution assay; format: functional
Escherichia coli [33] = test: Potentiation of imipenem-induced antibacterial activity against Escherichia coli T2433 expressing OXA-48 assessed as imipenem MIC at 32 mg/L by CLSI protocol based broth microdilution assay; format: functional

- inhibition [1]: 96%
- inhibition [2]: 68%
- MIC (Escherichia coli [3]): > 64 ng/mL
- MIC (Klebsiella pneumoniae [4]): > 66 ng/mL
- MIC (Escherichia coli [5]): > 67 ng/mL
- MIC (Klebsiella pneumoniae [8]): 4100 ng/mL
- MIC (Klebsiella pneumoniae [9]): 64 ng/mL
- MIC (Klebsiella pneumoniae [10]): 250 ng/mL
- MIC (Klebsiella pneumoniae [11]): 128 ng/mL
- MIC (Escherichia coli [12]): 2 ng/mL
- MIC (Escherichia coli [13]): 2 ng/mL
- MIC (Escherichia coli [22]): 0.5 ng/mL
- MIC (Escherichia coli [23]): 1 ng/mL
- MIC (Serratia marcescens): 250 ng/mL
- MIC (Citrobacter freundii [25]): 250 ng/mL
- MIC (Enterobacter cloacae [26]): 1 ng/mL
- MIC (Klebsiella pneumoniae [27]): 0.5 ng/mL
- MIC (Pseudomonas aeruginosa [28]): 8 ng/mL
- MIC (Enterobacter cloacae [29]): 0.5 ng/mL
- MIC (Escherichia coli [30]): 4 ng/mL
- MIC (Citrobacter freundii [31]): 4 ng/mL
- MIC (Klebsiella pneumoniae [32]): 16 ng/mL
- MIC (Escherichia coli [33]): 2 ng/mL
SMILES: N#CCN(Cc1ccccc1)Cc1cc([N+](=O)[O-])c2cccnc2c1O
- fold change (FC) (Escherichia coli [6]): 64
- fold change (FC) (Klebsiella pneumoniae [7]): 64
- fold change (FC) (Enterobacter cloacae [14]): 16
- fold change (FC) (Escherichia coli [15]): 8
- fold change (FC) (Pseudomonas aeruginosa [16]): 32
- fold change (FC) (Enterobacter cloacae [17]): 4
- fold change (FC) (Escherichia coli [18]): 1
- fold change (FC) (Citrobacter freundii [19]): 2
- Activity (Klebsiella pneumoniae [20]): inactive
- Activity (Escherichia coli [21]): inactive
- inhibition (Escherichia coli [24]): Active
